Results from patent US20120004281A1, “RNA Interference Mediated Inhibition of the Nerve Growth Factor Beta Chain (NGFB) Gene Expression Using Short Interfering Nucleic Acid (siNA)” (Merck Sharp & Dohme Corp, priority 2009, published 2012).
[invAb] = inverted abasic unit; m = 2'-O-methyl; r = 2'-OH (RNA); f = 2'-fluoro

Legend:
NGFβ mRNA = NGFβ mRNA knock-down in Calu-1 cells (RNAiMax transfection, Taqman RT-PCR); assay type: cell-based, human; conditions: for Primary Screen % KD (10 nM) / IC50 / Maximum % KD in DRC: human CaLu-1 cells; for Primary Screen % KD (10 nM): mean ± S.D. of four experiments; for IC50 / Maximum % KD in DRC: dose response 0.083fM to 30 nM, mean ± S.D.; for % KD in CaLu-1 Cells: human Calu-1 cells, 10 nM siNA, 24 hrs post-transfection, relative to non-targeting control, normalized to GAPDH
Description: Calu-1 (human; ATCC cat# HTB-54): Cells were cultured at 37° C. in the presence of 5% CO2 and grown in McCoy's 5a medium supplemented with fetal bovine serum at a final concentration of 10% and 100 μg/mL of streptomycin and 100 U/mL penicillin.
All transfections were performed using RNAiMax (Invitrogen Cat# 13778-150) as per the manufacturer's instructions.
Cells were plated in all wells of a tissue-culture treated, 96-well plate at a final count of 5,000 cells/well in […], of appropriate culture media. Cells were cultured for 24 hours after plating at 37° C. in the presence of 5% CO2.
After 24 hours, complexes containing siNA and RNAiMax were created as follows: A solution of RNAiMax diluted 33-fold in OPTI-MEM was prepared. In parallel, solutions of the siNAs for testing were prepared to a final concentration of 120 nM in OPTI-MEM. After incubation of RNAiMax/OPTI-MEM solution at room temperature for 5 min, an equal volume of the siRNA solution and the RNAiMax solution were added together for each of the siNAs.
This solution was incubated at room temperature for 20 minutes. After incubation, 20 uL of the solution was added to each of the relevant wells.
The final concentration of siNA in each well was 10 nM and the final volume of RNAiMax in each well was 0.3u1.
The time of incubation with the RNAiMax-siNA complexes was 24 hours, unless otherwise indicated. There was no change in media between the transfection and harvesting of the cells unless otherwise indicated.
Dose response curves were carried out in a similar fashion in 96-well plates, while maintaining a constant amount of RNAiMax in each transfection.
RNA was extracted from a 96-well plate using the TaqMan® Gene Expression Cells-to-CT™ Kit (Cat# 4399002) with a modified protocol. Briefly, a 60 uL (1 plate) or 110 uL (2 plates) of the Lysis Solution with DNase I was dispensed into each well of the Lysis Buffer Plate (twin.tec full skirt plate). The lysis buffer and stop plates were stored at 4° C. until the cells were washed.
The plate was spun at 1100 rpm for 5 minutes. The culture medium was aspirated and discarded from the wells of the culture plate. The lysis was performed automatically using a BioMek FX instrument and method. After the Biomek method was completed, the lysis plate was incubated for 2 min. at room temperature. The lysis plate can be stored for 2 hours at 4° C., or at −20° C. or −80° C. for two months.
Each well of the reverse transcription plate required 10 uL of 2× reverse transcriptase Buffer, luL of 20× reverse transcription enzyme and 2 uL of nuclease-free water. The reverse transcription master mix was prepared by mixing 2× reverse transcription buffer, 20× reverse transcription enzyme mix, and nuclease-free water. 13 uL of the reverse transcription master mix was dispensed into each well of the reverse transcription plate (semi-skirted). A separate reverse transcription plate was prepared for each cell plate. The plate was loaded onto a Biomek NX or Biomek FX Dual-96 and the Biomek method was run. The program is programmed to automatically added 7 uL of lysate from the cell lysis procedure described above into each well of the reverse transcription plate. The plate is sealed and spun on a centrifuge (1000 rpm for 30 seconds) to settle the contents to the bottom of the reverse transcription plate. The plate is placed in a thermocycler at 37° C. for 60 min, 95° C. for 5 min, and 4° C. until the plate is removed from the thermocycler. Upon removal, if not used immediately, the plate was frozen at −20° C.
A series of probes and primers were used to detect the various mRNA transcripts of the genes of NGFβ, BDNF and GAPDH in human cell lines. All the Taqman probes and primers for the experiments here-in described were supplied as pre-validated sets by Applied Biosystems, Inc. (see Table 3). The assays were performed on an ABI 7900 instrument, according to the manufacturer's instructions. […]

NGFβ protein = experiment: NGFβ ELISA (protein knock-down in Calu-1 cells); assay type: cell-based, human; conditions: for Max % Protein Reduction at 3 nM: 3 nM siNA, relative to negative universal control siNA (UC3); for IC50: 200 fM to 3 nM siNA, ELISA
Description: In a 96-well plate, 5,000 Calu-1cells/well were seeded in 100 uL of complete growth media and incubated overnight at 37° C. with 5% CO2. The cells were transfected with siNAs using RNAiMax (Invitrogen, Cat# 13778-150); final concentration of siNAs is 3e-09, le-09, 3e-10, le-10, 4e-11, le-11, 4e-12, le-12, 5e-13, and 2e-13 M. The amount of RNAiMax in each well is 0.3 uL. The siNAs were incubated for 24 hours. The medium was replaced with 100 uL of fresh complete growth medium. The cells were incubated for 48 hours. 80 uL of the medium from each well was collected into a separate 96-well plate. The samples were frozen immediately at −80° C. until ready the assay was ready to be performed.
ELISA was performed using NGF Emax® ImmunoAssay System (Promega, Cat # G7630) according to the manufaturer's instructions. The samples were diluted 1:2 with the blocking buffer provided in the kit. The samples absorbance was recorded at 450 nm on a SpectraMax plate reader (Molecular Devices) within 30 minutes of stopping the reaction.
Sigmaplot was used to determine IC50 values for each of the tested siRNAs using a sigmoidal dose response calculation. The maximum percentage of protein knock-down was determined by dividing the pg/mL at each treated siNA concentration by the pg/mL of the control treated cells at the same concentration of siNA. This number was then converted to a percentage to give the percent of protein remaining.
Various siNAs were also evaluated for their potential to knock-down NGFβ protein using an ELISA assay. Six siNAs were tested in an NGFβ ELISA assay across a range of concentrations of siNAs (200 fM to 3 nM) and the level of reduction of protein was determined relative to treatment of the cells with identical concentrations of the negative universal control siNA (UC3) (see Table 6).

NGF = target: T1, NGF (Homo sapiens, UniProt P01138); conditions: 440 patients, moderate-severe OA knee pain, 100 or 200 mcg/kg; 26% of patients given placebo; cited from earlier work
T1 construct: host or cells: patients (in vivo)
T1 sequence (P01138 122-241): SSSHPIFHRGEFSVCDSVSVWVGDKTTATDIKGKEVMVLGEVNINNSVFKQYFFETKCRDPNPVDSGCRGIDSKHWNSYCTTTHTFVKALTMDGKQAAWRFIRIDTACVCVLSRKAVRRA

25413-DC: siNA duplex, NGFβ target site 153; sense B cuGAGGuGcAuAGcGuAAu TTB (SEQ ID NO: 51), antisense AUUAcGcuAuGcAccucAGUU (SEQ ID NO: 52) (sense CUGAGGUGCAUAGCGUAAUTT; antisense AUUACGCUAUGCACCUCAGUU; sense: DNA at AGT, 2'-fluoro at CU, [invAb] at 5' end, 3' end, backbone not given here; antisense: sugars from the 5' end rrrmfmffmfmfmffffmmmm, backbone not given here)
Primary Screen % KD (10 nM) (NGFβ mRNA): 76 ± 6% | IC50 (NGFβ mRNA): 38 ± 35 pM | Maximum % KD in DRC (NGFβ mRNA): 69 ± 8% | % KD in CaLu-1 Cells (NGFβ mRNA): 68% | Max % Protein Reduction at 3 nM (NGFβ protein): 77% | IC50 (NGFβ protein): 0.253 nM

25416-DC: siNA duplex, NGFβ target site 771; sense B GuAccAcGAcucAcAccuu TTB (SEQ ID NO: 57), antisense AAGGuGuGAGucGuGGuAcUU (SEQ ID NO: 58) (sense GUACCACGACUCACACCUUTT; antisense AAGGUGUGAGUCGUGGUACUU; sense: DNA at AGT, 2'-fluoro at CU, [invAb] at 5' end, 3' end, backbone not given here; antisense: sugars from the 5' end rrrmfmfmmmffmfmmfmfmm, backbone not given here)
Primary Screen % KD (10 nM) (NGFβ mRNA): 80 ± 3% | IC50 (NGFβ mRNA): 35 ± 33 pM | Maximum % KD in DRC (NGFβ mRNA): 61 ± 7% | % KD in CaLu-1 Cells (NGFβ mRNA): 69% | Max % Protein Reduction at 3 nM (NGFβ protein): 89% | IC50 (NGFβ protein): 0.096 nM

25417-DC: siNA duplex, NGFβ target site 655; sense B GGuGAAcAuuAAcAAcAGu TTB (SEQ ID NO: 59), antisense ACUGuuGuuAAuGuucAccUU (SEQ ID NO: 60) (sense GGUGAACAUUAACAACAGUTT; antisense ACUGUUGUUAAUGUUCACCUU; sense: DNA at AGT, 2'-fluoro at CU, [invAb] at 5' end, 3' end, backbone not given here; antisense: sugars from the 5' end rrrmffmffmmfmfffmffmm, backbone not given here)
Primary Screen % KD (10 nM) (NGFβ mRNA): 71 ± 2% | IC50 (NGFβ mRNA): 71 ± 46 pM | Maximum % KD in DRC (NGFβ mRNA): 61 ± 2% | % KD in CaLu-1 Cells (NGFβ mRNA): 68% | Max % Protein Reduction at 3 nM (NGFβ protein): 77% | IC50 (NGFβ protein): 0.303 nM

25422-DC: siNA duplex, NGFβ target site 171; sense B uGuccAuGuuGuucuAcAc TTB (SEQ ID NO: 69), antisense GUGuAGAAcAAcAuGGAcAUU (SEQ ID NO: 70) (sense UGUCCAUGUUGUUCUACACTT; antisense GUGUAGAACAACAUGGACAUU; sense: DNA at AGT, 2'-fluoro at CU, [invAb] at 5' end, 3' end, backbone not given here; antisense: sugars from the 5' end rrrfmmmmfmmfmfmmmfmmm, backbone not given here)
Primary Screen % KD (10 nM) (NGFβ mRNA): 72 ± 11% | IC50 (NGFβ mRNA): 60 ± 45 pM | Maximum % KD in DRC (NGFβ mRNA): 61 ± 9% | % KD in CaLu-1 Cells (NGFβ mRNA): 72% | Max % Protein Reduction at 3 nM (NGFβ protein): 77% | IC50 (NGFβ protein): 0.395 nM

25424-DC: siNA duplex, NGFβ target site 176; sense B AuGuuGuucuAcAcucuGA TTB (SEQ ID NO: 73), antisense UCAGAGuGuAGAAcAAcAuUU (SEQ ID NO: 74) (sense AUGUUGUUCUACACUCUGATT; antisense UCAGAGUGUAGAACAACAUUU; sense: DNA at AGT, 2'-fluoro at CU, [invAb] at 5' end, 3' end, backbone not given here; antisense: sugars from the 5' end rrrmmmfmfmmmmfmmfmfmm, backbone not given here)
Primary Screen % KD (10 nM) (NGFβ mRNA): 82 ± 9% | IC50 (NGFβ mRNA): 50 ± 55 pM | Maximum % KD in DRC (NGFβ mRNA): 72 ± 5% | % KD in CaLu-1 Cells (NGFβ mRNA): 78% | Max % Protein Reduction at 3 nM (NGFβ protein): 85% | IC50 (NGFβ protein): 0.108 nM

25425-DC: siNA duplex, NGFβ target site 181; sense B GuucuAcAcucuGAucAcA TTB (SEQ ID NO: 75), antisense UGUGAucAGAGuGuAGAAcUU (SEQ ID NO: 76) (sense GUUCUACACUCUGAUCACATT; antisense UGUGAUCAGAGUGUAGAACUU; sense: DNA at AGT, 2'-fluoro at CU, [invAb] at 5' end, 3' end, backbone not given here; antisense: sugars from the 5' end rrrmmffmmmmfmfmmmmfmm, backbone not given here)
Primary Screen % KD (10 nM) (NGFβ mRNA): 83 ± 6% | IC50 (NGFβ mRNA): 20 ± 19 pM | Maximum % KD in DRC (NGFβ mRNA): 72 ± 1% | % KD in CaLu-1 Cells (NGFβ mRNA): 80% | Max % Protein Reduction at 3 nM (NGFβ protein): 87% | IC50 (NGFβ protein): 0.074 nM

Tanezumab
patients with 50% decline in pain (NGF): approximately 75%
